Measurements from patent US20240166652A1, “MODULATORS OF THE INTEGRATED STRESS PATHWAY” (Calico Life Sciences LLC, priority 2017, published 2024).

These compounds were tested on ATF4 luciferase reporter in HEK293T cells (assay: ATF4-Luc assay (ATF4 luciferase reporter, tunicamycin-treated HEK293T cells)). Settings: Homo sapiens, HEK-293T; HEK293T cells carrying the ATF4 luciferase reporter, 1 μg/mL tunicamycin, 7 hours.
Assay type: cell-based, human
Compound `O=C(COCc1ccc(Cl)cc1)NC12CC(NC(=O)COc3ccc(Cl)c(Cl)c3)(C1)C2` [Compound 156, 2-[(4-chlorophenyl)methoxy]-N-{3-[2-(3,4-dichlorophenoxy)acetamido]-bicyclo[1.1.1]pentan-1-yl}acetamide] has an EC50 of 10 to 50 nM.
Compound `CC(C)(C)c1ccc(OCC(=O)NC23CCC(NC(=O)COc4ccc(Cl)c(F)c4)(CC2)[C@@H](O)C3)cc1` [Compound 477, 2-(4-tert-butylphenoxy)-N-{(3S)-4-[2-(4-chloro-3-fluorophenoxy)acetamido]-3-hydroxybicyclo[2.2.2]octan-1-yl}acetamide] has an EC50 of over 2000 nM.
`O=C(COCc1cccc(Cl)c1)NC12CC(NC(=O)COc3ccc(Cl)c(Cl)c3)(C1)C2` [Compound 158, 2-[(3-chlorophenyl)methoxy]-N-{3-[2-(3,4-dichlorophenoxy)acetamido]-bicyclo[1.1.1]pentan-1-yl}acetamide] gave an EC50 of under 10 nM.
In the case of `COCc1cc(OCC(=O)NC23CCC(NC(=O)COc4ccc(Cl)c(F)c4)(CC2)[C@@H](O)C3)ccc1Cl` [Compound 757, 2-(4-chloro-3-fluorophenoxy)-N-[(2S)-4-{2-[4-chloro-3-(methoxymethyl)phenoxy]acetamido}-2-hydroxybicyclo[2.2.2]octan-1-yl]acetamide], the EC50 is reported as 10 to 50 nM.
Work on `Cc1ccc(OCC(=O)NC23CC(NC(=O)COc4ccc(Cl)c(F)c4)(C2)C3)cc1C` [Compound 456, 2-(4-chloro-3-fluorophenoxy)-N-{3-[2-(3,4-dimethylphenoxy)acetamido]bicyclo[1.1.1]pentan-1-yl}acetamide] yielded an EC50 of under 10 nM.
`CO[C@H]1C[C@]2(NC(=O)COc3ccc(Cl)c(F)c3)CC[C@@]1(NC(=O)COc1ccc(Cl)c(F)c1)CC2=O` (racemic) [Compound 555, rac-N,N′-[(1R,2S,4R)-2-methoxy-5-oxobicyclo[2.2.2]octane-1,4-diyl]bis[2-(4-chloro-3-fluorophenoxy)acetamide]] gave an EC50 of 10 to 50 nM.
`O=C(COc1ccc(Cl)c(F)c1)NC12CC(NC(=O)C(CCO)Oc3ccc(Cl)cc3)(C1)C2` (centres unmarked) [Compound 827, N-{3-[2-(4-chloro-3-fluorophenoxy)acetamido]bicyclo[1.1.1]pentan-1-yl}-2-(4-chlorophenoxy)-4-hydroxybutanamide] was tested, and the EC50 was 50 to 250 nM.
Compound `COc1cc(Cl)ccc1OCC(=O)NC12CCC(NC(=O)COc3ccc(Cl)c(F)c3)(CC1)[C@@H](O)C2` [Compound 793, 2-(4-chloro-3-fluorophenoxy)-N-{(2S)-4-[2-(4-chloro-2-methoxyphenoxy)acetamido]-2-hydroxybicyclo[2.2.2]octan-1-yl}acetamide] has an EC50 of under 10 nM.
In the case of `O=C(COc1ccc(F)c(F)c1)NC12CCC(NC(=O)COc3ccc(Cl)c(Cl)c3)(CC1)C(=O)N2` [Compound 680, 2-(3,4-dichlorophenoxy)-N-{1-[2-(3,4-difluorophenoxy)acetamido]-3-oxo-2-azabicyclo[2.2.2]octan-4-yl}acetamide], the EC50 is reported as under 10 nM.
Compound `Cc1cc(OCC(=O)NC23CCC(NC(=O)COc4ccc(Cl)c(F)c4)(CC2)C[C@@H]3O)cnc1C` [Compound 394, 2-(4-chloro-3-fluorophenoxy)-N-[(3S)-4-{2-[(5,6-dimethylpyridin-3-yl)oxy]acetamido}-3-hydroxybicyclo[2.2.2]octan-1-yl]acetamide] has an EC50 of under 10 nM.
For `Cc1cc(Cl)ncc1OCC(=O)NC12CC(NC(=O)COc3ccc(Cl)c(F)c3)(C1)C2` [Compound 243, 2-(4-chloro-3-fluorophenoxy)-N-(3-{2-[(6-chloro-4-methylpyridin-3-yl)oxy]acetamido}bicyclo[1.1.1]pentan-1-yl)acetamide], the EC50 was 250 to 500 nM.
For `O=C(COc1ccc(C(F)F)nc1)NC12CC(NC(=O)COc3ccc(Cl)c(F)c3)(C1)C2` [Compound 399, 2-(4-chloro-3-fluorophenoxy)-N-[3-(2-{[6-(difluoromethyl)pyridin-3-yl]oxy}acetamido)bicyclo[1.1.1]pentan-1-yl]acetamide], the EC50 was 10 to 50 nM.
Work on `O=C(COc1ccc(Cl)c(F)c1)NC12CCC(NC(=O)COc3ccc(Cl)c(F)c3)(CC1)C(N1CC(O)C1)C2` (centres unmarked) [Compound 719, N,N′-[2-(3-hydroxyazetidin-1-yl)bicyclo[2.2.2]octane-1,4-diyl]bis[2-(4-chloro-3-fluorophenoxy)acetamide]] yielded an EC50 of 10 to 50 nM.
In the case of `Cc1cc(OCC(=O)NC23CC(NC(=O)COc4ccc(Cl)c(F)c4)(C2)C3)n(C)n1` [Compound 385, 2-(4-chloro-3-fluorophenoxy)-N-(3-{2-[(1,3-dimethyl-1H-pyrazol-5-yl)oxy]acetamido}bicyclo[1.1.1]pentan-1-yl)acetamide], the EC50 is reported as 500 to 2000 nM.
Compound `O=C(COc1ccc(Cl)c(Cl)c1)NC12CC(NC(=O)Cc3ccccn3)(C1)C2` [Compound 447, 2-(3,4-dichlorophenoxy)-N-{3-[2-(pyridin-2-yl)acetamido]bicyclo[1.1.1]pentan-1-yl}acetamide] has an EC50 of over 2000 nM.
For `COc1cc(OCC(=O)NC23CCC(NC(=O)COc4ccc(Cl)c(F)c4)(CC2)[C@@H](O)C3)ccc1Cl` [Compound 465, 2-(4-chloro-3-fluorophenoxy)-N-{(2S)-4-[2-(4-chloro-3-methoxyphenoxy)acetamido]-2-hydroxybicyclo[2.2.2]octan-1-yl}acetamide], the EC50 was under 10 nM.
With `O=C(COc1ccc(Cl)c(Cl)c1)NC12CC(NC(=O)OCc3cccc(Cl)c3)(C1)C2` [Compound 172, (3-chlorophenyl)methyl {3-[2-(3,4-dichlorophenoxy)acetamido]-bicyclo[1.1.1]pentan-1-yl}carbamate] the EC50 was 250 to 500 nM.
`CCc1nc(C)ccc1OCC(=O)NC12CC(NC(=O)COc3ccc(Cl)c(F)c3)(C1)C2` [Compound 239, 2-(4-chloro-3-fluorophenoxy)-N-(3-{2-[(2-ethyl-6-methylpyridin-3-yl)oxy]acetamido}bicyclo[1.1.1]pentan-1-yl)acetamide] was tested, and the EC50 was over 2000 nM.
For `CS(=O)(=O)c1ccc(CC(=O)NC23CCC(NC(=O)COc4ccc(Cl)c(F)c4)(CC2)CC3O)cc1` (centres unmarked) [Compound 325, 2-(4-chloro-3-fluorophenoxy)-N-(3-hydroxy-4-{2-[4-(methanesulfonyl)phenyl]acetamido}bicyclo[2.2.2]octan-1-yl)acetamide], the EC50 was over 2000 nM.
`O=C(CCOc1cccc(Cl)c1)NC12CC(NC(=O)COc3ccc(Cl)c(F)c3)(C1)C2` [Compound 147, N-{3-[2-(4-chloro-3-fluorophenoxy)acetamido]bicyclo[1.1.1]pentan-1-yl}-3-(3-chlorophenoxy)propanamide] gave an EC50 of 50 to 250 nM.
`Cc1nc(F)ccc1OCC(=O)NC12CC(NC(=O)COc3ccc(Cl)c(F)c3)(C1)C2` [Compound 249, 2-(4-chloro-3-fluorophenoxy)-N-(3-{2-[(6-fluoro-2-methylpyridin-3-yl)oxy]acetamido}bicyclo[1.1.1]pentan-1-yl)acetamide] showed an EC50 of 250 to 500 nM.
`O=C(COc1ccc(Cl)c(Cl)c1)NC12CCCC(NC(=O)COc3ccc(Cl)c(Cl)c3)(C1)C2` [Compound 209] was tested, and the EC50 was over 2000 nM.
Work on `CCCN1C(=O)C2(NC(=O)COc3ccc(Cl)c(F)c3)CCC1(NC(=O)COc1ccc(Cl)c(F)c1)CC2` [Compound 677, N,N′-(3-oxo-2-propyl-2-azabicyclo[2.2.2]octane-1,4-diyl)bis[2-(4-chloro-3-fluorophenoxy)acetamide]] yielded an EC50 of 500 to 2000 nM.
Compound `O=C(COc1ccc(Cl)cc1)NC12CCC(NC(=O)COc3ccc4c(c3)OC(F)(F)O4)(CC1)CC2` [Compound 742, 2-(4-chlorophenoxy)-N-(4-{2-[(2,2-difluoro-2H-1,3-benzodioxol-5-yl)oxy]acetamido}bicyclo[2.2.2]octan-1-yl)acetamide] has an EC50 of under 10 nM.
For `O=C(COc1ccc(Cl)c(F)c1)NC12CC(NC(=O)COc3ccc(Cl)cc3NCCO)(C1)C2` [Compound 797, 2-(4-chloro-3-fluorophenoxy)-N-[3-(2-{4-chloro-2-[(2-hydroxyethyl)amino]phenoxy}acetamido)bicyclo[1.1.1]pentan-1-yl]acetamide], the EC50 was 50 to 250 nM.
With `O=C(COc1ccc(F)c(C(F)(F)F)c1)NC12CCC(NC(=O)COc3ccc(F)c(F)c3)(CC1)[C@@H](O)C2` [Compound 845, 2-(3,4-difluorophenoxy)-N-[(2S)-4-{2-[4-fluoro-3-(trifluoromethyl)phenoxy]acetamido}-2-hydroxybicyclo[2.2.2]octan-1-yl]acetamide] the EC50 was under 10 nM.
In the case of `O=C(CNC(=O)c1ccccc1)NC12CC(NC(=O)COc3ccc(Cl)c(F)c3)(C1)C2` [Compound 492, N-[2-({3-[2-(4-chloro-3-fluorophenoxy)acetamido]bicyclo[1.1.1]pentan-1-yl}amino)-2-oxoethyl]benzamide], the EC50 is reported as over 2000 nM.
In the case of `O=C(COc1ccc(F)c(C(F)F)c1)NC12CCC(NC(=O)COc3ccc(Cl)c(F)c3)(CC1)[C@@H](O)C2` [Compound 790, 2-(4-chloro-3-fluorophenoxy)-N-[(2S)-4-{2-[3-(difluoromethyl)-4-fluorophenoxy]acetamido}-2-hydroxybicyclo[2.2.2]octan-1-yl]acetamide], the EC50 is reported as under 10 nM.
`O=C(COc1ccc2ccccc2c1)NC12CCC(NC(=O)COc3ccc(Cl)c(F)c3)(CC1)[C@@H](O)C2` [Compound 472, 2-(4-chloro-3-fluorophenoxy)-N-[(2S)-2-hydroxy-4-{2-[(naphthalen-2-yl)oxy]acetamido}bicyclo[2.2.2]octan-1-yl]acetamide] gave an EC50 of under 10 nM.
`O=C(COc1ccc(Cl)c(F)c1)NC12CC(NC(=O)Cc3ccc(C(F)(F)F)nc3)(C1)C2` [Compound 342, 2-(4-chloro-3-fluorophenoxy)-N-(3-{2-[6-(trifluoromethyl)pyridin-3-yl]acetamido}bicyclo[1.1.1]pentan-1-yl)acetamide] gave an EC50 of 250 to 500 nM.
For `O=C(/C=C/c1cccnc1)NC12CC(NC(=O)COc3ccc(Cl)c(F)c3)(C1)C2` [Compound 352, (2E)-N-{3-[2-(4-chloro-3-fluorophenoxy)acetamido]bicyclo[1.1.1]pentan-1-yl}-3-(pyridin-3-yl)prop-2-enamide], the EC50 was 500 to 2000 nM.
`O=C(COc1ccc(C(F)(F)F)nc1)NC12CC(NC(=O)COc3ccc4c(c3)OC(F)(F)O4)(C1)C2` [Compound 266, 2-[(2,2-difluoro-2H-1,3-benzodioxol-5-yl)oxy]-N-[3-(2-{[6-(trifluoromethyl)-pyridin-3-yl]oxy}acetamido)bicyclo[1.1.1]pentan-1-yl]acetamide] showed an EC50 of under 10 nM.
